Results reported in patent publication US20170191057A1, “RNA EDITING BIOMARKERS FOR DIAGNOSIS, PHARMACOLOGICAL SCREENING AND PROGNOSTICATION IN CANCER” (REGENTS OF THE UNIVERSITY OF CALIFORNIA, priority 2014, published 2017).

Key:
ADAR1 = assay: qRT-PCR of total ADAR1 levels after 8-azaadenosine treatment; type: cell-based, human; conditions: cord blood, ABM, and blast crisis cells; FIG. 21A
Protocol: (A) 8-azaadenosine treatment results in reduced total ADAR1 levels by qRT-PCR, and (B) decreased RNA editing in APOBEC3D (Sites 1 & 2) by direct sequencing.
Cell lines, lentivirus-transduced primary hematopoietic cells, or FACS-purified primary cells were harvested in lysis buffer (Qiagen). RNA was purified using RNeasy extraction kits with a DNase (Qiagen) incubation step to digest any trace genomic DNA present. For RNA extraction from cell line lysates, 1-2×10^6 cells were extracted using RNeasy mini columns, and for primary cells, 5-10×10^4 cells were lysed and extracted using RNeasy micro columns. Genomic DNA was purified from equal numbers of cells lysed separately using the QIAamp DNA Blood Mini Kit (Qiagen) including an RNase A incubation step to digest any RNA present (Qiagen). RNA was stored at −80° C. and gDNA stored at −20° C. Immediately prior to reverse transcription of RNA samples, nucleic acid concentrations were quantified on a NanoDrop 2000 spectrophotometer (Thermo Scientific), and purity was considered acceptable if A260/A280 values were >1.8. […]

[1] = test system: RNA editing in APOBEC3D (Sites 1 & 2); assay: Direct sequencing of CSC-specific RNA editing biomarkers in APOBEC3D after 8-azaadenosine treatment; type: cell-based, human
Protocol: As proof-of-concept that small molecule inhibitors could block RNA editing activity, CD34^+ cells from a CML blast crisis patient were treated with vehicle or 1 μM 8-azaadenosine (Veliz et al., JACS 2003) for 24 hours and co-cultured on humanized bone marrow stromal cells (SL/M2) for 5 days. […] Thus, RESSq-PCR and RNA editing inhibitors is an allele-specific diagnostic assay that can be used for detection of primate-specific RNA editing events in cancer stem cells.
For PCR and targeted Sanger sequencing analysis, 1-2 μL of first-strand cDNA templates were prepared for PCR in 25-50 μL reaction volumes using the high-fidelity KOD Hot Start DNA Polymerase kit according to the manufacturer's instructions (EMD Millipore, Temecula, Calif.). “Outer” primers (Additional file 2: Table S2) used for sequencing produce predicted amplicons of approximately 150-250 nucleotides in length, and flank each editing site with approximately 50-100 bp on either side of the editing site to facilitate successful sequencing analysis. […] Sequence chromatograms were analyzed using 4Peaks (by A. Griekspoor and Tom Groothuis) and peak heights calculated using ImageJ (NIH). For RNA editing analysis of sequencing chromatograms, ratios of edited/WT peaks were calculated using the raw peak amplitude of each sequence trace.

SMILES: Nc1ncnc2c1nnn2[C@@H]1O[C@H](CO)[C@@H](O)[C@H]1O [8-azaadenosine]
- total ADAR1 levels by qRT-PCR (ADAR1): reduced
- edit/wild-type sequence ratios of two CSC-specific RNA editing biomarkers in APOBEC3D ([1]; CD34+ cells from a CML blast crisis patient, 1 μM for 24 hours vs vehicle, co-cultured on SL/M2 stromal cells for 5 days): reduction
- RNA editing in APOBEC3D (Sites 1 & 2) by direct sequencing ([1]; cord blood, ABM, and blast crisis cells, FIG. 21B): decreased
